# From patent publication US8575089B2, “Composition for preventing or treating inflammation” (University-Industry Cooperation Group of Kyung Hee, priority 2009, dated 2013)
# Where no end group is shown, it is not given here.
# System: IL-10
# Assay: Radiation-irradiating model: anti-inflammatory cytokine IL-10 in blood (ELISA)
# Format: in vivo, C57b1/6 mice
# Settings: mice, 8 Gy, 5 nmole/kg SP i.v., FIG. 9
# Procedure: 5 nmole/kg of SP dissolved in a physiological saline was injected to a tail vein of C57b1/6 mice (8 weeks, sex; male, n=4, Average weight; 20 g) one day before irradiation and immediately after irradiation. The irradiation was performed at 8 Gy radiation in a Gamma lay radiation irradiator (^137Cs, Atomic Energy of Canada, Mississauga, Canada). The mice were sacrificed at 4.5 hours and one day after irradiation, and then the blood was collected. The part of the blood was used for analyzing CBC (Complete Blood Count) and the remaining blood was used to isolate serum and then analyze cytokines
# IL-6 and TNFα that are well known as inflammatory cytokines were analyzed. Specific procedures were as follows: Serum samples stored in […] and reagents, controls, and standard proteins stored in a cold storage were taken out at a room temperature. […] After 30 minutes, 100 μl of stop codon was treated to stop the reaction; the optical density was measured at 450 nm; the amounts of cytokines were converted based on a protein conversion formula by a standard sample; and then the result was shown in FIG. 8. […]
# IL-10 that is well known as an anti-inflammatory cytokine was analyzed with ELISA (R&D System) by using the same method as Example 2-2.
substance,measurement,setting,value
"Substance-P (RPKPQQFFGLM; not fully specified; ends and bridges not checked; UniProt P20366 58-68, looked up)",amount of IL-10 in blood,4.5 hours after irradiation,increased by at least two times
same,amount of IL-10 in blood,one day after irradiation,increased
